target: Human immunodeficiency virus type 1 protease (Human immunodeficiency virus 1, UniProt Q72874); test: Tested for inhibitory activity against the recombinant HIV-1 protease

Which IC50 does the source give for CC(C)(C)[C@H](NC(=O)OCc1ccccc1)C(=O)NC(Cc1ccccc1)C(=O)C(F)(F)C(=O)NCc1ccccc1 (stereo partly drawn) here?
The IC50 was 0.027 µM.

How did the Ki turn out when CON[C@H](C(=O)N[C@H](C(=O)NC(=O)C(F)(F)C(=O)[C@H](Cc1ccccc1)NC(=O)[C@H](C)NC(=O)[C@H](C)NC(=O)[C@H](CO)NC(=O)OC(C)(C)C)C(C)C)C(C)C was run?
The Ki was 160 µM.

With CC(C)CC(NC(=O)OCc1ccccc1)C(=O)NC(Cc1ccccc1)C(=O)C(F)(F)C(=O)NCc1ccccc1 (stereo not drawn) as the compound, how does the IC50 read?
Its IC50 is 750 µM.

CC(C)(C)OC(=O)NC(Cc1ccc(O)cc1)C(=O)C(F)(F)C(=O)NCc1ccccc1 (stereo not drawn) was tested. Which Ki did it give?
The Ki was 0.0003 µM.

Which IC50 does the source give for CC(C)C(NC(=O)OCc1ccccc1)C(=O)NC(Cc1ccccc1)C(O)C(F)(F)C(=O)NCc1ccccc1 (stereo not drawn) here?
Its IC50 is 5000 µM.

Which Ki does the source give for O=C(Cc1ccccc1)NCC(F)(F)C(=O)C(Cc1ccccc1)NC(=O)OCc1ccccc1 (stereo not drawn) here?
The Ki was 60000 µM.

With CC(C)C(NC(=O)OCc1ccccc1)C(=O)NC(Cc1ccccc1)C(=O)C(F)(F)C(=O)CCc1ccccc1 (stereo not drawn) as the compound, how does the IC50 read?
Its IC50 is 0.1 µM.

For CN(Cc1ccccc1)C(=O)C(=O)C(=O)C(Cc1ccccc1)NC(=O)OCc1ccccc1 (stereo not drawn), which Ki is on record?
The Ki was 5000 µM.

Which Ki does the source give for O=C(NC(Cc1cccc2ccccc12)C(=O)C(F)(F)C(=O)NCc1ccccc1)OCc1ccccc1 (stereo not drawn) here?
Its Ki is greater than 1000 µM.

With NC(=O)C(F)(F)C(=O)C(Cc1ccccc1)NC(=O)OCc1ccccc1 (stereo not drawn) as the compound, how does the IC50 read?
The IC50 was 300 µM.

With CC(C)C(NC(=O)OCc1ccccc1)C(=O)NC(Cc1ccccc1)C(=O)C(F)(F)C(=O)NCc1ccccc1 (stereo not drawn) as the compound, how does the Ki read?
The Ki was 0.001 µM.

How did the Ki turn out when C[Si](C)(C)CC(NC(=O)OCc1ccccc1)C(=O)C(F)(F)C(=O)NCc1ccccc1 (stereo not drawn) was run?
Its Ki is 12 µM.

How did the Ki turn out when C[Si](C)(C)CNC(=O)C(F)(F)C(=O)C(Cc1ccccc1)NC(=O)OCc1ccccc1 (stereo not drawn) was run?
The Ki was 0.6 µM.

For O=C(NC(Cc1ccccc1)C(=O)C(F)(F)C(=O)NCc1ccccc1)OCc1ccccc1 (stereo not drawn), which Ki is on record?
Its Ki is 0.0006 µM.

CC(C)(C)OC(=O)NC(Cc1ccccc1)C(=O)C(F)(F)C(=O)NCc1ccccc1 (stereo not drawn) was tested. Which IC50 did it give?
The IC50 was 0.004 µM.

CC(C)(C)OC(=O)NC(C[Si](C)(C)C)C(=O)C(F)(F)C(=O)NCc1ccccc1 (stereo not drawn) was tested. Which Ki did it give?
Its Ki is 2.5 µM.

How did the Ki turn out when CC(C)(C)CNC(=O)C(F)(F)C(=O)C(Cc1ccccc1)NC(=O)OCc1ccccc1 (stereo not drawn) was run?
Its Ki is 0.65 µM.

For CCC[C@H](NC(=O)OCc1ccccc1)C(=O)NC(Cc1ccccc1)C(=O)C(F)(F)C(=O)NCc1ccccc1 (stereo partly drawn), which Ki is on record?
Its Ki is 400 µM.
